According to patent US20260184687A1, “DIHYDROINDENE DERIVATIVES AS MALT1 INHIBITORS” (C4X Discovery Limited, priority 2022, published 2026):
pIC50: −log10 of the molar value.

What was measured:
[1] = system: IL-2 release from stimulated Jurkat cells; assay: Human IL-2 Release Phenotypic Assay (Assay 3); assay type: cell-based; settings: Jurkat cells (clone E6-1), 200 ng/mL PMA + 300 ng/mL ionomycin, IL-2 by ELISA
Method in brief: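 Jurkat E6-1 cells in RPMI1640/10% FBS were seeded at 50 000 cells/well and incubated overnight at 37° C. Half-log compound dilutions (0.5% final DMSO) were added for 30 min, then cells were stimulated with 200 ng/mL PMA + 300 ng/mL ionomycin for 48 h. IC50 came from a 4-parameter non-linear regression fit.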

[2] = molecular target: MALT1-GS-Ub (6-His-hMALT-1 residues 339-715 fused to ubiquitin) (Homo sapiens, UniProt Q9UDY8); assay: biochemical;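 note: in vitro MALT1 protease assay: enzyme preincubated with compound 30 min at room temperature, then cleavage of fluorogenic Ac-LVSR-AMC substrate (100 µM) followed by fluorescence every 15 min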
Procedure: MALT1 protease activity was assessed in vitro by measuring the cleavage of a fluorogenic tetrapeptide substrate.
A protein (MALT1-GS-Ub) comprising 6-His-hMALT-1 (residues 339-715), fused to ubiquitin with an 8×GGS linker, was expressed in E. coli, and purified using chitin resin to remove contaminants followed by affinity chromatography purification and size-exclusion chromatography, according to standard protocols.
Briefly, MALT1-GS-Ub (300-600 nM) was incubated with substrate (Ac-LVSR-AMC, 100 μM) in reaction buffer comprising 50 mM HEPES (pH7.0), 25 mM KCl, 0.1% (v/v) CHAPS and 1 mM TCEP.
Test compounds dissolved in DMSO were dispensed into assay plates (384-well, black, shallow ProxiPlates). 7 μl enzyme solution was added and incubated at room temperature for 30 minutes to allow compound binding to occur. 2 μl substrate solution was then added and the fluorescence (excitation 360 nm, emission 460 nm) read every 15 minutes using a suitable plate reader. Final assay DMSO concentration was 1%. […] IC50 values were calculated using GraphPad Prism using a 4-parameter non-linear regression curve fit.

FL hMALT1 enzyme = molecular target: T1, FL hMALT1 enzyme (Homo sapiens, UniProt Q9UDY8); assay: biochemical;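 note: Cell-free protease assay: enzyme preincubated with compound 30 min at room temperature, then cleavage of fluorogenic Ac-LVSR-AMC substrate (100 µM) tracked by fluorescence (ex 360/em 460 nm)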
T1 sequence (Q9UDY8 1-824): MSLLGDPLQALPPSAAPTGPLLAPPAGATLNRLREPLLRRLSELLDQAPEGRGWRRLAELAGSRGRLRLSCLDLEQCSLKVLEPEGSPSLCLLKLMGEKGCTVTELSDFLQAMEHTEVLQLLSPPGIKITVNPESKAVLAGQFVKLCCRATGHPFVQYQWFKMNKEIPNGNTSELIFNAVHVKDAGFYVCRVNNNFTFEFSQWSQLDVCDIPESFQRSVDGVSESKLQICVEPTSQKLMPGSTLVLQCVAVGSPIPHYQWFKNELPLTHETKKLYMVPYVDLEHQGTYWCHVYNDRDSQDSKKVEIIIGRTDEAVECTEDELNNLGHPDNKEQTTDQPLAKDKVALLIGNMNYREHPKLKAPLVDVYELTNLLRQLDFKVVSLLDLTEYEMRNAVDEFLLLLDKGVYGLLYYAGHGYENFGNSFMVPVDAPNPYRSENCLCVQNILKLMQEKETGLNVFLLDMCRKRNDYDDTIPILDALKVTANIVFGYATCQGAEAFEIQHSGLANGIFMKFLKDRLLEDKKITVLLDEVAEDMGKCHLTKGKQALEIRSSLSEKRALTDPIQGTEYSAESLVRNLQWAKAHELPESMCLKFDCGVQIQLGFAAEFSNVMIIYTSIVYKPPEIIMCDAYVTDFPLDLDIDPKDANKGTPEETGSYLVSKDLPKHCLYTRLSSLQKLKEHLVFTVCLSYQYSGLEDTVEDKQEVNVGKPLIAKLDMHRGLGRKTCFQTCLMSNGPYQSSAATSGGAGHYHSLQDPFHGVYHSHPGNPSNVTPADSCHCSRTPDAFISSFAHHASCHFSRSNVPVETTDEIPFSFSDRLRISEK

Chain of MALT1-GS-Ub (6-His-hMALT-1 residues 339-715 fused to ubiquitin) (Q9UDY8 with tags, fused parts or gaps limits assumed): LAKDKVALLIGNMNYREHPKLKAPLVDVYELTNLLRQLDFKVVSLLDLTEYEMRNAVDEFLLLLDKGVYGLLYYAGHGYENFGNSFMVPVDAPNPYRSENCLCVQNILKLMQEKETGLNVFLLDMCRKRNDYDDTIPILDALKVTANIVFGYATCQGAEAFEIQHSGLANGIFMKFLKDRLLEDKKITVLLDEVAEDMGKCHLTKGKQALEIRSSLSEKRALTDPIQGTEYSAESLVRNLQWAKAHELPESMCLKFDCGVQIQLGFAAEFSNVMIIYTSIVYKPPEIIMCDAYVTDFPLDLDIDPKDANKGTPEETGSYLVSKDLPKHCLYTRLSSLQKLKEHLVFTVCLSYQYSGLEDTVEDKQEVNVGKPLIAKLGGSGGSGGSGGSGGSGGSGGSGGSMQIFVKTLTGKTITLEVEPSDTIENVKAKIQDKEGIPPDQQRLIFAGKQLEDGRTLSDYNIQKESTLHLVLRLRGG

Question: `CN(C(=O)CCN1CCCC1=O)[C@@H](c1ccc(NC2Cc3ccccc3C2(C)C)cc1)C(F)(F)F` (single isomer, unassigned) [Example 47] was tested. Which pIC50 ([1]; 48 hours) did it give?
Answer: 5.63

Question: And the pIC50 [2]?
Answer: 6.77

Question: And the pIC50 (FL hMALT1 enzyme)?
Answer: 6.96

Question: What does the source list for `CN(C(=O)CCN1CCCC1=O)[C@@H](c1ccc(NC2Cc3ccccc3C2(C)C)cc1)C(F)(F)F` (single isomer, unassigned) [Example 48]?
Answer: pIC50 ([1]; 48 hours): 5.94; pIC50 [2]: 6.85; pIC50 (FL hMALT1 enzyme): 7.77

Question: `CN(C(=O)C1CCS(=O)(=O)CC1)[C@@H](c1ccc(NC2Cc3ccc(Cl)cc3C2)cc1)C(F)(F)F` (single isomer, unassigned) [Example 55] was tested. Which pIC50 ([1]; 48 hours) did it give?
Answer: 5.34

Question: What about the pIC50 [2] of the same molecule?
Answer: 6.28

Question: What about the pIC50 (FL hMALT1 enzyme) of the same molecule?
Answer: 6.66

Question: How did the pIC50 ([1]; 48 hours) turn out when `CN(C(=O)C1CCS(=O)(=O)CC1)[C@@H](c1ccc(NC2Cc3ccc(Cl)cc3C2)cc1)C(F)(F)F` (single isomer, unassigned) [Example 56] was run?
Answer: 7.03

Question: And the pIC50 [2]?
Answer: 6.82

Question: And the pIC50 (FL hMALT1 enzyme)?
Answer: 7.85

Question: What does the source list for `CC(=O)N1CC(OC(=O)N(C)[C@@H](c2ccc(NC3Cc4ccccc4C3(C)C)cc2)C(F)(F)F)C1` (single isomer, unassigned) [Example 57]?
Answer: pIC50 ([1]; 48 hours): 5.43; pIC50 [2]: 6.80; pIC50 (FL hMALT1 enzyme): 7.04

Question: With `CC(=O)N1CC(OC(=O)N(C)[C@@H](c2ccc(NC3Cc4ccccc4C3(C)C)cc2)C(F)(F)F)C1` (single isomer, unassigned) [Example 58] as the molecule, how does the pIC50 ([1]; 48 hours) read?
Answer: 5.99

Question: What about the pIC50 [2] of the same molecule?
Answer: 6.72

Question: And the pIC50 (FL hMALT1 enzyme)?
Answer: 7.42

Question: `C[C@H](c1ccc(NC2Cc3ccccc3C2(C)C)cc1)N(C)C(=O)C1CCS(=O)(=O)CC1` (single isomer, unassigned) [Example 63] was tested. Which pIC50 ([1]; Homo sapiens, Jurkat, 48 h) did it give?
Answer: 5.59

Question: What about the pIC50 [2] of the same molecule?
Answer: 6.41

Question: What about the pIC50 (FL hMALT1 enzyme) of the same molecule?
Answer: 6.70

Question: With `CNS(=O)(=O)CCCC(=O)N(C)[C@@H](c1ccc(NC2Cc3ccccc3C2(C)C)cc1)C(F)(F)F` (single isomer, unassigned) [Example 64] as the molecule, how does the pIC50 ([1]; 48 hours) read?
Answer: 6.54

Question: What about the pIC50 [2] of the same molecule?
Answer: 6.82

Question: And the pIC50 (FL hMALT1 enzyme)?
Answer: 7.92

Question: How did the pIC50 ([1]; 48 hours) turn out when `CNS(=O)(=O)CCCC(=O)N(C)[C@@H](c1ccc(NC2Cc3ccccc3C2(C)C)cc1)C(F)(F)F` (single isomer, unassigned) [Example 65] was run?
Answer: 5.65

Question: What about the pIC50 [2] of the same molecule?
Answer: 6.72

Question: And the pIC50 (FL hMALT1 enzyme)?
Answer: 7.35

Question: Which results are given for `CN(C(=O)CN1CC(=O)NC1=O)[C@@H](c1ccc(NC2Cc3ccccc3C2(C)C)cc1)C(F)(F)F` (single isomer, unassigned) [Example 66]?
Answer: pIC50 ([1]; 48 hours): 6.23; pIC50 [2]: 6.66; pIC50 (FL hMALT1 enzyme): 7.70

Question: With `CN(C(=O)CN1CC(=O)NC1=O)[C@@H](c1ccc(NC2Cc3ccccc3C2(C)C)cc1)C(F)(F)F` (single isomer, unassigned) [Example 67] as the molecule, how does the pIC50 ([1]; 48 hours) read?
Answer: 5.22

Question: And the pIC50 [2]?
Answer: 6.35

Question: What about the pIC50 (FL hMALT1 enzyme) of the same molecule?
Answer: 7.11

Question: What does the source list for `CN(C(=O)C1CN(S(C)(=O)=O)C1)[C@@H](c1ccc(NC2Cc3ccccc3C2(C)C)cc1)C(F)(F)F` (single isomer, unassigned) [Example 68]?
Answer: pIC50 ([1]; 48 hours): 6.92; pIC50 [2]: 6.72; pIC50 (FL hMALT1 enzyme): 7.82

Question: `CN(C(=O)C1CN(S(C)(=O)=O)C1)[C@@H](c1ccc(NC2Cc3ccccc3C2(C)C)cc1)C(F)(F)F` (single isomer, unassigned) [Example 69] was tested. Which pIC50 ([1]; 48 hours) did it give?
Answer: 6.04

Question: And the pIC50 [2]?
Answer: 6.55

Question: What about the pIC50 (FL hMALT1 enzyme) of the same molecule?
Answer: 7.10

Question: What does the source list for `CN(C(=O)C1CCNCC1)[C@@H](c1ccc(NC2Cc3ccccc3C2)cc1)C(F)(F)F` (single isomer, unassigned) [Example 70]?
Answer: pIC50 ([1]; Homo sapiens, Jurkat, 48 h): 5.46; pIC50 [2]: 6.37; pIC50 (FL hMALT1 enzyme): 6.09

Question: With `CNC(=O)N1CC(C(=O)N(C)[C@@H](c2ccc(NC3Cc4ccccc4C3(C)C)cc2)C(F)(F)F)C1` (single isomer, unassigned) [Example 73] as the molecule, how does the pIC50 ([1]; 48 hours) read?
Answer: 6.43

Question: And the pIC50 [2]?
Answer: 6.38

Question: And the pIC50 (FL hMALT1 enzyme)?
Answer: 8.15

Question: With `CNC(=O)N1CC(C(=O)N(C)[C@@H](c2ccc(NC3Cc4ccccc4C3(C)C)cc2)C(F)(F)F)C1` (single isomer, unassigned) [Example 74] as the molecule, how does the pIC50 ([1]; 48 hours) read?
Answer: 6.74

Question: What about the pIC50 [2] of the same molecule?
Answer: 6.49

Question: And the pIC50 (FL hMALT1 enzyme)?
Answer: 7.74

Question: Which results are given for `CN1CC(C(=O)N(C)[C@@H](c2ccc(NC3Cc4ccccc4C3(C)C)cc2)C(F)(F)F)C1` (single isomer, unassigned) [Example 75]?
Answer: pIC50 ([1]; Homo sapiens, Jurkat, 48 h): 6.09; pIC50 [2]: 6.60; pIC50 (FL hMALT1 enzyme): 6.43
